Results reported in PubChem BioAssay (NCI).
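Step 1: Grow cells in 96-well plates. Step 2: Expose to compound for 48 hours at 5 concentrations. Step 3: Interpolate endpoints linearly; if unreached, use highest concentration. At the GI50, growth is halved. The concentration for full growth arrest is given as TGI.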

Key:
Assay in all cases: growth of human tumour cells (NCI), 48 h
[1] = tested on: M14 melanoma
[2] = tested on: MCF7 breast
[3] = tested on: U251 CNS
[4] = tested on: T-47D breast
[5] = tested on: DU-145 prostate
[6] = tested on: SF-539 CNS
[7] = tested on: UACC-62 melanoma
[8] = tested on: A498 renal
[9] = tested on: HOP-62 NSCLC
[10] = tested on: SNB-75 CNS
[11] = tested on: MDA-MB-435
[12] = tested on: OVCAR-5 ovarian
[13] = tested on: MDA-MB-231 breast
[14] = tested on: A549 NSCLC
[15] = tested on: NCI-H226 lung
[16] = tested on: SK-MEL-2 melanoma
[17] = tested on: MALME-3M melanoma
[18] = tested on: MOLT-4 leukemia
[19] = tested on: HOP-92 NSCLC
[20] = tested on: HCC-2998 colon
[21] = tested on: RXF 393 renal
[22] = tested on: HT29 colon
[23] = tested on: UACC-257 melanoma
[24] = tested on: HCT-116 colon
[25] = tested on: HL-60(TB) leukemia
[26] = tested on: KM12 colon
[27] = tested on: SK-MEL-28 melanoma
[28] = tested on: OVCAR-8 ovarian
[29] = tested on: HS 578T breast
[30] = tested on: SF-295 CNS
[31] = tested on: HCT-15 colon
[32] = tested on: K-562 leukemia
[33] = tested on: NCI-H460 lung
[34] = tested on: OVCAR-3 ovarian
[35] = tested on: SW-620 colon
[36] = tested on: NCI/ADR-RES ovarian
[37] = tested on: NCI-H23 lung
[38] = tested on: SN12C renal
[39] = tested on: CCRF-CEM leukemia
[40] = tested on: NCI-H522 lung
[41] = tested on: RPMI-8226 leukemia
[42] = tested on: ACHN renal
[43] = tested on: 786-0 renal
[44] = tested on: SNB-19 CNS
[45] = tested on: UO-31 renal
[46] = tested on: COLO 205 colon
[47] = tested on: LOX IMVI melanoma
[48] = tested on: CAKI-1 renal
[49] = tested on: IGROV1 ovarian
[50] = tested on: SR leukemia
[51] = tested on: SF-268 CNS
[52] = tested on: EKVX NSCLC
[53] = tested on: SK-MEL-5 melanoma
[54] = tested on: TK-10 renal
[55] = tested on: OVCAR-4 ovarian
[56] = tested on: PC-3 prostate
[57] = tested on: SK-OV-3 ovarian
[58] = tested on: BT-549 breast

With CCN(CC)CCCC(C)NC(=S)N/N=C(\C)c1ccccn1 (stereo not given) the GI50 [1] was 2.8 µM, the TGI [1] was 17.8 µM and the GI50 [2] was 2.94 µM. For the same compound, the TGI [2] was over 100 µM, the GI50 [3] was 2.78 µM and the TGI [3] was over 100 µM. The GI50 [4] was 5.36 µM, the TGI [4] was over 100 µM and the GI50 [5] was 3.79 µM. It also gave a TGI [5] of over 100 µM, a GI50 [6] of 3.33 µM and a TGI [6] of 82 µM. It also gave a GI50 [7] of 3.02 µM, a TGI [7] of over 100 µM and a GI50 [8] of 2570 nM. It also gave a TGI [8] of 97 µM, a GI50 [9] of 5.86 µM and a TGI [9] of 83.1 µM. The GI50 [10] was 7.55 µM, the TGI [10] was over 100 µM and the GI50 [11] was 5.17 µM. For the same compound, the TGI [11] was over 100 µM, the GI50 [12] was 4.89 µM and the TGI [12] was over 100 µM. It also gave a GI50 [13] of 0.475 µM, a TGI [13] of over 100 µM and a GI50 [14] of 3.75 µM. The TGI [14] was over 100 µM, the GI50 [15] was 2.28 µM and the TGI [15] was 21.2 µM. The GI50 [16] was 5.54 µM, the TGI [16] was over 100 µM and the GI50 [17] was 3.96 µM. It also gave a TGI [17] of over 100 µM, a GI50 [18] of 4.49 µM and a TGI [18] of over 100 µM. It also gave a GI50 [19] of 3.98 µM, a TGI [19] of over 100 µM and a GI50 [20] of 3.52 µM. It also gave a TGI [20] of over 100 µM, a GI50 [21] of 2.14 µM and a TGI [21] of 6.81 µM. The GI50 [22] was 5.59 µM, the TGI [22] was over 100 µM and the GI50 [23] was 3.16 µM. For the same compound, the TGI [23] was 31.2 µM, the GI50 [24] was 2.3 µM and the TGI [24] was over 100 µM. For the same compound, the GI50 [25] was 1.39 µM, the TGI [25] was 6.02 µM and the GI50 [26] was 4.02 µM. For the same compound, the TGI [26] was over 100 µM, the GI50 [27] was 16.9 µM and the TGI [27] was over 100 µM. The GI50 [28] was 2.87 µM, the TGI [28] was over 100 µM and the GI50 [29] was 43.9 µM. It also gave a TGI [29] of over 100 µM, a GI50 [30] of 4.38 µM and a TGI [30] of over 100 µM. For the same compound, the GI50 [31] was 2.49 µM, the TGI [31] was over 100 µM and the GI50 [32] was 3.08 µM. It also gave a TGI [32] of over 100 µM, a GI50 [33] of 2330 nM and a TGI [33] of 15 µM. For the same compound, the GI50 [34] was 3.87 µM, the TGI [34] was over 100 µM and the GI50 [35] was 4.03 µM. It also gave a TGI [35] of over 100 µM, a GI50 [36] of 15.6 µM and a TGI [36] of over 100 µM. The GI50 [37] was 5.22 µM, the TGI [37] was over 100 µM and the GI50 [38] was 4.14 µM. The TGI [38] was over 100 µM, the GI50 [39] was 4.64 µM and the TGI [39] was over 100 µM. For the same compound, the GI50 [40] was 3.17 µM, the TGI [40] was 9.41 µM and the GI50 [41] was 5.84 µM. It also gave a TGI [41] of over 100 µM, a GI50 [42] of 2.99 µM and a TGI [42] of over 100 µM. For the same compound, the GI50 [43] was 2.83 µM, the TGI [43] was 12 µM and the GI50 [44] was 7.83 µM. For the same compound, the TGI [44] was over 100 µM, the GI50 [45] was 2.51 µM and the TGI [45] was over 100 µM. The GI50 [46] was 3.25 µM, the TGI [46] was over 100 µM and the GI50 [47] was 2.63 µM. It also gave a TGI [47] of over 100 µM, a GI50 [48] of 4.56 µM and a TGI [48] of over 100 µM. It also gave a GI50 [49] of 5.64 µM, a TGI [49] of over 100 µM and a GI50 [50] of 2450 nM. The TGI [50] was over 100 µM, the GI50 [51] was 3.19 µM and the TGI [51] was over 100 µM. The GI50 [52] was 6.71 µM, the TGI [52] was over 100 µM and the GI50 [53] was 1.7 µM. It also gave a TGI [53] of 4.2 µM, a GI50 [54] of 21.6 µM and a TGI [54] of over 100 µM. For the same compound, the GI50 [55] was 3 µM, the TGI [55] was over 100 µM and the GI50 [56] was 5.02 µM. The TGI [56] was over 100 µM.

COc1ccc(C(=O)CC(Cl)=C(Cl)Cl)cc1 was tested, and the GI50 [1] was 27.5 µM, the TGI [1] was 66.1 µM and the GI50 [2] was 53.4 µM. For the same compound, the TGI [2] was over 100 µM, the GI50 [3] was 36 µM and the TGI [3] was over 100 µM. It also gave a GI50 [4] of 26.2 µM, a TGI [4] of 61.9 µM and a GI50 [5] of 31.5 µM. The TGI [5] was over 100 µM, the GI50 [6] was 37.2 µM and the TGI [6] was over 100 µM. For the same compound, the GI50 [7] was 21.7 µM, the TGI [7] was 49.9 µM and the GI50 [8] was over 100000 nM. The TGI [8] was over 100 µM, the GI50 [9] was 61.4 µM and the TGI [9] was over 100 µM. The GI50 [11] was 24.8 µM, the TGI [11] was 62.7 µM and the GI50 [12] was 22.6 µM. The TGI [12] was 50.4 µM, the GI50 [13] was 33.1 µM and the TGI [13] was over 100 µM. The GI50 [14] was over 100 µM, the TGI [14] was over 100 µM and the GI50 [15] was 34.1 µM. For the same compound, the TGI [15] was 85.7 µM, the GI50 [16] was 44.4 µM and the TGI [16] was over 100 µM. The GI50 [17] was 20.4 µM, the TGI [17] was 43 µM and the GI50 [18] was 19.7 µM. It also gave a TGI [18] of 64.2 µM, a GI50 [19] of 19.3 µM and a TGI [19] of 53.7 µM. For the same compound, the GI50 [57] was over 100 µM, the TGI [57] was over 100 µM and the GI50 [21] was 32 µM. It also gave a TGI [21] of 97.1 µM, a GI50 [22] of 22 µM and a TGI [22] of 83.5 µM. The GI50 [23] was 34.4 µM, the TGI [23] was over 100 µM and the GI50 [24] was 22.2 µM. For the same compound, the TGI [24] was 63.4 µM, the GI50 [25] was 34.2 µM and the TGI [25] was 95 µM. It also gave a GI50 [26] of 71.2 µM, a TGI [26] of over 100 µM and a GI50 [27] of 16 µM. The TGI [27] was 37.2 µM, the GI50 [28] was 33.2 µM and the TGI [28] was over 100 µM. For the same compound, the GI50 [29] was over 100 µM, the TGI [29] was over 100 µM and the GI50 [30] was 59.9 µM. The TGI [30] was over 100 µM, the GI50 [31] was 28 µM and the TGI [31] was 97.4 µM. For the same compound, the GI50 [33] was over 100000 nM, the TGI [33] was over 100 µM and the GI50 [34] was 20.6 µM. The TGI [34] was 41.2 µM, the GI50 [35] was 33.5 µM and the TGI [35] was over 100 µM. The GI50 [36] was 25.2 µM, the TGI [36] was 59.4 µM and the GI50 [37] was 23.3 µM. For the same compound, the TGI [37] was 47.1 µM, the GI50 [38] was 34.6 µM and the TGI [38] was over 100 µM. For the same compound, the GI50 [39] was 30.3 µM, the TGI [39] was over 100 µM and the GI50 [40] was 34.3 µM. It also gave a TGI [40] of 81.5 µM, a GI50 [41] of 23.5 µM and a TGI [41] of 68.5 µM. For the same compound, the GI50 [42] was 20.1 µM, the TGI [42] was 41.4 µM and the GI50 [43] was 21.7 µM. For the same compound, the TGI [43] was 44.7 µM, the GI50 [44] was 32.4 µM and the TGI [44] was over 100 µM. For the same compound, the GI50 [45] was 25.8 µM, the TGI [45] was 54.7 µM and the GI50 [46] was 25.6 µM. It also gave a TGI [46] of 61.5 µM, a GI50 [47] of 19.2 µM and a TGI [47] of 43.4 µM. For the same compound, the GI50 [48] was 23.2 µM, the TGI [48] was 53.5 µM and the GI50 [58] was 21.6 µM. It also gave a TGI [58] of 57.3 µM, a GI50 [49] of 28.3 µM and a TGI [49] of 75.9 µM. For the same compound, the GI50 [51] was 38.2 µM, the TGI [51] was over 100 µM and the GI50 [52] was 28.5 µM. It also gave a TGI [52] of over 100 µM, a GI50 [53] of 33.8 µM and a TGI [53] of over 100 µM. The GI50 [54] was 23.9 µM, the TGI [54] was 59.9 µM and the GI50 [55] was 19.8 µM. For the same compound, the TGI [55] was 56.1 µM, the GI50 [56] was 26.7 µM and the TGI [56] was over 100 µM.
